Source: PMC8767159, “Multiparameter Optimization of Trypanocidal Cruzain Inhibitors With In Vivo Activity and Favorable Pharmacokinetics” (Frontiers in Pharmacology, 2022)

Key:
[1] = target: rhodesain (Trypanosoma brucei rhodesiense, UniProt Q95PM0); test: Rhodesain fluorescence-based inhibition assay (Z-FR-AMC); type: biochemical; settings: Table S3; compound 100 µM
Protocol: Rhodesain activity was measured using a fluorescence-based assay as previously described ([Fonseca et al., 2015]). The cleavage rates of the fluorogenic substrate Z-Phe-Arg-aminomethyl coumarin (Z-FR-AMC) were monitored at wavelengths of 340 nm for excitation and 440 nm for emission. All assays were performed in triplicate in a 0.1 M sodium acetate buffer, pH 5.5, with 1 mM beta-mercaptoethanol and 0.01% Triton X-100. The final concentration of rhodesain was 3 nM, and the substrate concentration was 2.5 μM. The cleavage of the substrate was followed by continuous reading for 5 min, and enzyme activity in the presence of 100 μM of each potential inhibitor was calculated based on initial velocity rates compared to DMSO controls. All compounds were tested in triplicate in three independent experiments.

[2] = Cytotoxicity MTS assay in HFF-1 fibroblasts; type: cell-based; settings: human HFF-1 fibroblasts
Protocol: The synthesized compounds were evaluated for their cytotoxicity against HFF-1 cells using the MTS assay (Promega, Madison, WI) ([Barltrop et al., 1991]) as previously described ([Ferreira et al., 2019]). HFF-1 fibroblasts were plated at 2 × 10^3/well in 96-well culture plates in RPMI 1640 without phenol red enriched with 10% FCS and incubated overnight at 37°C and 5% CO2. Next, 7 concentrations (0.1–100 µM) of the compounds were added in 3-fold serial dilutions, each concentration in triplicate, and the plates were incubated for 72 h at 37°C and 5% CO2. Next, 20 µl of MTS was added to each well, and the plates were incubated for an additional 4 h at 37°C and 5% CO2. The absorbance was measured at 490 nm using a spectrophotometer, and the data were transferred to SigmaPlot 10.0 (Systat Software Inc., Erkrath, Germany) to determine the IC50 values. Doxorubicin (Sigma–Aldrich) was used as a positive control, and untreated wells (100% growth) were used as negative controls in all plates. All compounds were tested in two independent assays.

[3] = Acute toxicity and open-field test in female Swiss mice; type: in vivo
Protocol: Thirty-day-old female Swiss mice weighing 20–25 g and procured from the Center for the Development of Experimental Models for Medicine and Biology (CEDEME/UNIFESP) served as the subjects for these experiments. […] Rodent chow and water were available ad libitum throughout the experiments.
The compound, solubilized in 10% DMSO aqueous solution, was administered orally in a single dose of 150 and 300 mg/kg of body weight in female Swiss mice. Parameters related to behavior, autonomic functions, neurological activity, and mortality were assessed as toxicity signs. Soon after the administration of the compound, mice were placed in a circular open-field arena (40 cm diameter) with 50-cm-high walls to assess motor deficits. […] After this period, toxicity signs were assessed once a day for two consecutive weeks. The reference drug BZ at 150 mg/kg and vehicle (10% DMSO) were administered as controls.

[4] = system: T. cruzi (Y strain); test: In vivo trypanocidal activity in mice infected with T. cruzi (Y strain); design: species or system Trypanosoma cruzi; settings: for % reduction of peak parasitemia: vs vehicle
Protocol: Thirty-day-old female Swiss mice weighing 20–25 g and procured from the Center for the Development of Experimental Models for Medicine and Biology (CEDEME/UNIFESP) served as the subjects for these experiments. Animals were housed (5–6 per cage) in polypropylene cages and kept under controlled temperature (22–23°C) and humidity on a 12-h light/dark cycle (12 h light, 12 h dark; lights on at 6:30 am). Rodent chow and water were available ad libitum throughout the experiments. The Committee of Ethics in Research of the Universidade Federal de São Paulo approved all the experiments (CEUA n° 5301080816).
Treatment started on day five after infection with T. cruzi. The following parameters were evaluated in these experiments: level of parasitemia after the treatment, suppression of peak parasitemia (day seven after the infection), and reduction of parasitemia on the peak day (day seven after infection). Parasitemia was expressed as the number of T. cruzi trypomastigotes per 5 µl of blood and was calculated using the Brener method ([Brener, 1962]). […] On the seventh day of treatment, when parasitemia reached its peak, one-way ANOVA indicated a treatment effect (F3,16 = 7.47; p = 0.002). […] This dose-response effect is likely associated with the modulation of physiological systems that increase the susceptibility of the animals to infection with T. cruzi at high doses of the compound. […] The results of the in vivo studies indicate a moderate ability of 28 to suppress peak parasitemia at 150 mg/kg.

[5] = single oral dose 150 and 300 mg/kg, 2 weeks of observation
[6] = 150 mg/kg, gavage, five daily doses from day 5 after infection, day 7, female Swiss mice
[7] = 300 mg/kg, gavage, five daily doses, day 7, female Swiss mice

rhodesain, sequence (Q95PM0 entry or part of it): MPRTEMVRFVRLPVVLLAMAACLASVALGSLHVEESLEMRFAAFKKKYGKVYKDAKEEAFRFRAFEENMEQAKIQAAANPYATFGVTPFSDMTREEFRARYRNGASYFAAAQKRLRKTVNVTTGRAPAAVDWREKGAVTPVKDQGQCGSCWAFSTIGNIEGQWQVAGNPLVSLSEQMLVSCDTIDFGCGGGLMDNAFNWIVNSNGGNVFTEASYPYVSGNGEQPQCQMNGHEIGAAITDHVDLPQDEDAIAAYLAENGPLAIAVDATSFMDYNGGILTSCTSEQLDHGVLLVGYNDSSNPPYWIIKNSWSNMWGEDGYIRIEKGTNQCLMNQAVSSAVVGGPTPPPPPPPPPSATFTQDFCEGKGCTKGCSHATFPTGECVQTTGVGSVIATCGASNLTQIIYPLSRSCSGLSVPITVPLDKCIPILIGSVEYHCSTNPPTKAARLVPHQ

Structure (SMILES) | IC50 at 72 h [2] | also measured
O=C(COc1ccc2ccc(O)cc2c1)NCCc1nc2ccccc2[nH]1 [Compound 11] |  | inhibition at 100 µM [1]: 67%
O=C(COc1ccccc1)NCCc1nc2ccccc2n1Cc1ccccc1 [Compound 26] | > 100 µM | 
CC(=O)Nc1cccc(OCC(=O)NCCc2nc3ccccc3[nH]2)c1 [Compound 3] | > 100 µM | inhibition at 100 µM [1]: 41%
O=C(COc1ccc(NC(=O)CCCO)cc1)NCCc1nc2ccccc2[nH]1 [Compound 5] | > 100 µM | 
O=C(COc1ccccc1)NCCc1nc2ccccc2[nH]1 [Compound 1] | > 100 µM | 
O=C(COc1ccc2cc(O)ccc2c1)NCCc1nc2ccccc2[nH]1 [Compound 10] | > 100 µM | inhibition at 100 µM [1]: 60%
CC(=O)Nc1ccc(OCC(=O)NCCc2nc3ccccc3[nH]2)cc1 [Compound 2] | > 100 µM | 
O=C(COc1ccccc1)NCCc1nc2ccccc2n1CCCOc1ccccc1 [Compound 24] | > 30 µM | 
O=C(COc1ccc2ccccc2c1)NCCc1nc2ccccc2[nH]1 [Compound 35] | > 100 µM | 
COc1ccc2cc(OCC(=O)NCCc3nc4ccccc4[nH]3)ccc2c1 [Compound 12] |  | inhibition at 100 µM [1]: 56%
Cc1ccccc1OCC(=O)NCCc1nc2ccccc2[nH]1 [Compound 17] | > 100 µM | 
C=CCCn1c(CCNC(=O)COc2ccccc2Cl)nc2ccccc21 [Compound 38] | > 100 µM | 
O=C(COc1cccc([N+](=O)[O-])c1)NCCc1nc2ccccc2[nH]1 [Compound 8] | > 100 µM | 
NC(=O)Cn1c(CCNC(=O)COc2ccccc2)nc2ccccc21 [Compound 28] | > 100 µM | Locomotor deficits (open-field test) ([3]; oral 150 and 300 mg/kg): did not cause locomotor deficits; Mortality [3, 5]: no mortality; Toxicity signs (behavior, autonomic functions, neurological activity) [3, 5]: No toxicity signs; reduction in parasitemia levels at lower doses ([4]; 75 mg/kg and 37.5 mg/kg, Supplementary Figure S10): no reduction; % reduction of peak parasitemia [4, 6]: 36.9%; increase in the peak parasitemia compared with the vehicle [4, 7]: 13%; % reduction of peak parasitemia [4, 7]: -13%
Cc1ccccc1OCC(=O)NCCc1nc2ccccc2o1 [Compound 37] | > 100 µM | 
O=C(COc1ccccc1[N+](=O)[O-])NCCc1nc2ccccc2[nH]1 [Compound 32] | > 100 µM | 
O=C(COc1ccccc1Br)NCCc1nc2ccccc2[nH]1 [Compound 18] | > 100 µM | 
O=C(COc1ccccc1)NCCc1nc2ccccc2n1CCOc1ccccc1 [Compound 20] | > 30 µM | 
O=C(COc1ccc2ccccc2c1Br)NCCc1nc2ccccc2[nH]1 [Compound 34] | > 30 µM | 
Nc1cccc(OCC(=O)NCCc2nc3ccccc3[nH]2)c1 [Compound 9] |  | inhibition at 100 µM [1]: 40%
O=C(COc1ccc(Br)cc1)NCCc1nc2ccccc2[nH]1 [Compound 33] | > 100 µM | 
O=C(Cn1ccnc1[N+](=O)[O-])NCc1ccccc1 [BZ, benznidazole, reference compound] | > 100 µM | % reduction of peak parasitemia [4, 6]: 100%
C=CCCn1c(CCNC(=O)COc2ccccc2)nc2ccccc21 [Compound 27] | > 100 µM | 
